From patent EP0655506B1 (priority 1994, dated 1995)

Target: T1, T7 DNA polymerase (28 amino acid deletion in the exonuclease domain, complexed with thioredoxin), tyrosine at residue 526 (WT) (Escherichia phage T7, UniProt P00581, DEL118-145)
T1 construct: made in house; host or cells: strain that produces E. coli thioredoxin, lac promoter
Experiment: Gel electrophoresis-based rate of incorporation of dideoxynucleotides relative to deoxynucleotides, 1:1 ratio of dNTPs to ddNTPs (Example 6)
Type: biochemical, bacteriophage T7
Settings: for D, discrimination factor (ratio of the use of a specific dNTP to the use of the comparable ddNTP at equal concentrations): 100 µM 4dNTPs and 100 µM of one ddNTP, 5 mM MgCl2, 37 °C; for Incorporation Rate Ratios (dN/ddN): stated to be the absolute ratios obtained in Example 6 (1:1 dNTPs to ddNTPs)
Text: The primary application of this test is to determine the absolute ratio of incorporation of a ddNMP to a dNMP for a DNA polymerase that efficiently incorporates dideoxynucleotides, such as T7 DNA polymerase, E. coli DNA polymerase I mutant F762Y or Taq DNA polymerase mutant F667Y. It can also indicate the level of discrimination against ddNTPs of any DNA polymerase; however, for DNA polymerases that discriminate strongly against ddNTPs, such as T7 DNA polymerase mutant Y526F, E. coli DNA polymerase I or Taq DNA polymerase, higher ratios of ddNTP to dNTP are necessary to determine precisely their level of discrimination, which is described in detail in Example 7.
DNA synthesis reactions are carried out on the ^32P-end labeled 40 mer-M 13 mGP1-2 DNA template complex prepared as described in Example 3. Reaction conditions are used that are optimum for the DNA polymerase being tested with regard to buffer, pH, salts, and temperature of the reaction. A concentration of DNA polymerase is chosen whereby most of the primers are extended in a 10 min reaction and are terminated by the incorporation of a dideoxynucleotide. The reaction mixture contains 100 µM 4dNTPs and 100 µM of one of the four ddNTPs.
We used this test to compare the ability of six DNA polymerases to incorporate each of the four ddNMPs. The DNA polymerases tested were (1) T7 DNA polymerase with a 28 amino acid deletion in the exonuclease domain and complexed in a one-to-one ratio with thioredoxin (Tabor and Richardson 264 J. Biol. Chem. 6447, 1989) (referred to here as "T7 DNA polymerase"), (2) The large fragment of E. coli DNA polymerase I, commonly called the Klenow fragment (referred to here as "E. coli DNA polymerase I"), (3) Unmodified DNA polymerase from Thermus aquaticus (referred to here as "Taq DNA polymerase"), (4) T7 DNA polymerase as described above in which the tyrosine at residue 526 has been changed to a phenylalanine (referred to here as "T7 DNA polymerase Y526F"), (5) E. coli DNA polymerase I as described above in which the phenylalanine at residue 762 has been changed to a tyrosine (referred to here as "E. coli DNA polymerase I F762Y"), and (6) Taq DNA polymerase as described above in which the phenylalanine at residue 667 has been changed to a tyrosine (referred to here as "Taq DNA polymerase F667Y").
The reaction mixtures also contained 10 ng of yeast inorganic pyrophosphatase to inhibit pyrophosphorolysis that could otherwise increase the apparent discrimination by the DNA polymerase (Tabor and Richardson 265 j. Biol. Chem. 8322, 1990). The reactions were initiated by the addition of 2 µl of each DNA polymerase, diluted in 20 mM TrisHCl, pH 7.5, 10 mM 2-mercaptoethanol and 0.05% bovine serum albumin to a concentration of approximately 0.025 units/µl. The concentration of each DNA polymerase was sufficient to extend most of the labeled primers by more than 500 nucleotides in the absence of ddNTPs in a 15 min reaction. The reaction mixtures were incubated for 15 min at either 37 °C (T7 DNA polymerase, T7 DNA polymerase Y526F, E. coli DNA polymerase I, and E. coli DNA polymerase F762Y) or 70 °C (Taq DNA polymerase and Taq DNA polymerase F667Y). The reactions were terminated by the addition of 10 µl 90% formamide, 20 mM EDTA, 0.05% bromphenol blue. Each sample was heated at 90°C for 2 min immediately prior to loading 6 µl of each sample onto a gel consisting of 8% polyacrylamide, 0.4% N,N'-methylenebisacrylamide, 7 M urea in 100 mM Trisborate, pH 8.3, 1 mM EDTA. Electrophoresis was at 2000 Volts for 90 min (until the bromphenol blue had just run off the bottom of the gel). After electrophoresis, the gel was dried under vacuum, and autoradiographed. After autoradiography, the distribution of radioactively labeled fragments was determined by Phosphorimager analysis (Molecular Dynamics). […]

T1 sequence (P00581 other isoform, or with tags, fused parts or gaps DEL118-145): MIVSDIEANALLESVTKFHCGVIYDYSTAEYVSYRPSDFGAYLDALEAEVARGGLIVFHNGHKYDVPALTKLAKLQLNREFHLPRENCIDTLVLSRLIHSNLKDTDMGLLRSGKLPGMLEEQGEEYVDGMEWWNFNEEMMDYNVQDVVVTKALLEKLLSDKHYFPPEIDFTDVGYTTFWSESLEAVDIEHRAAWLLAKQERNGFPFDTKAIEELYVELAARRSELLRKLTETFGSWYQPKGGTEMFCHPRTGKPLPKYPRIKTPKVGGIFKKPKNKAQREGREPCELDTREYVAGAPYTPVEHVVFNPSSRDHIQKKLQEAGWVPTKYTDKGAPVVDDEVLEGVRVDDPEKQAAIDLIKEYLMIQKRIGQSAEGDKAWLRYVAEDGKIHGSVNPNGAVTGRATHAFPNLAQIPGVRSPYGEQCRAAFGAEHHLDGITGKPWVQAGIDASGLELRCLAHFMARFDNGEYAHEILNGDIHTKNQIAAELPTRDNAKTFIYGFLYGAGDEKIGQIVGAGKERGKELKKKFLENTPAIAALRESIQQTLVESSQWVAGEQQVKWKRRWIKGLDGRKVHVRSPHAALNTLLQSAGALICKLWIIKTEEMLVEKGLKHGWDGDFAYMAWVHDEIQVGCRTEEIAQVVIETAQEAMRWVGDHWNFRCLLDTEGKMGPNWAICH
T1 sequence (P0AA25 2-109, stated change not applied, further chain): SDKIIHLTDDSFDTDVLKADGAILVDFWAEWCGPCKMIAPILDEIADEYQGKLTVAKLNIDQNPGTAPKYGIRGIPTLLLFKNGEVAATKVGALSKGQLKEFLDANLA

| Compound | D, discrimination factor (ratio of the use of a specific dNTP to the use of the comparable ddNTP at equal concentrations) | Incorporation Rate Ratios (dN/ddN) |
| --- | --- | --- |
| Nc1ncnc2c1ncn2[C@H]1CC[C@@H](COP(=O)(O)OP(=O)(O)OP(=O)(O)O)O1 [ddATP] | 2.3 | 3.3 |
| Nc1ccn([C@H]2CC[C@@H](COP(=O)(O)OP(=O)(O)OP(=O)(O)O)O2)c(=O)n1 [ddCTP] | 2.7 | 3.7 |
| Nc1nc2c(ncn2[C@H]2CC[C@@H](COP(=O)(O)OP(=O)(O)OP(=O)(O)O)O2)c(=O)[nH]1 [ddGTP] | 2.2 | 3.2 |
| Cc1cn([C@H]2CC[C@@H](COP(=O)(O)OP(=O)(O)OP(=O)(O)O)O2)c(=O)[nH]c1=O [ddTTP] | 1.8 | 2.8 |
